Toxic doses and inconclusive results are not listed. The calls were made as follows: active = survival T/C of 150% or more; inactive = T/C below 125% in these data.
Tested on: P388 leukemia ip, CD2F1 mice, survival T/C
Experiment: NCI In Vivo Anticancer Drug Screen. Data for tumor model P388 Leukemia (intraperitoneal) in CD2F1 (CDF1) mice
Conditions: endpoint: median survival time, higher = longer survival
Procedure, shortened: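 Mice carrying the transplanted tumor received test compound or vehicle. Survival was recorded in each group, and the value is the treated-group measurement divided by that of the vehicle-treated control group.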

[1] = dose: 3.13 mg/kg/injection, schedule: Q01DX009 (ip), vehicle: saline with Tween-80
[2] = dose: 6.25 mg/kg/injection, schedule: Q01DX009 (ip), vehicle: saline with Tween-80
[3] = dose: 12.5 mg/kg/injection, schedule: Q01DX009 (ip), vehicle: saline with Tween-80
[4] = dose: 25.0 mg/kg/injection, schedule: Q01DX009 (ip), vehicle: saline with Tween-80
[5] = dose: 50.0 mg/kg/injection, schedule: Q01DX009 (ip), vehicle: saline with Tween-80
[6] = dose: 100.0 mg/kg/injection, schedule: Q01DX009 (ip), vehicle: saline with Tween-80
[7] = dose: 200.0 mg/kg/injection, schedule: Q01DX009 (ip), vehicle: saline with Tween-80

Measured: T/C

CCCCCCCCCCCC(=O)NO
inactive: [1] 94 % of control | [2] 99 % of control | [3] 101 % of control | [4] 95 % of control

[O-]/[N+](=C\c1ccccc1)CCO
inactive: [5] 97 % of control | [6] 101 % of control | [7] 106 % of control

O=C1CSC(=S)N1c1ccc(Br)cc1
inactive: dose: 50.0 mg/kg/injection, schedule: Q01DX009 (ip), vehicle: Klucel (hydroxypropylcellulose) (HPC) 106 % of control | dose: 100.0 mg/kg/injection, schedule: Q01DX009 (ip), vehicle: Klucel (hydroxypropylcellulose) (HPC) 105 % of control | dose: 200.0 mg/kg/injection, schedule: Q01DX009 (ip), vehicle: Klucel (hydroxypropylcellulose) (HPC) 108 % of control

CC(=O)Nc1cccc([N+](=O)[O-])c1
inactive: dose: 50.0 mg/kg/injection, schedule: Q04DX003 (ip), vehicle: saline with Tween-80 110 % of control | dose: 100.0 mg/kg/injection, schedule: Q04DX003 (ip), vehicle: saline with Tween-80 110 % of control | dose: 200.0 mg/kg/injection, schedule: Q04DX003 (ip), vehicle: saline with Tween-80 110 % of control

CCOC/C=C\C(C)(C)C
inactive: dose: 50.0 mg/kg/injection, schedule: Q01DX001 (ip), vehicle: saline 107 % of control | dose: 100.0 mg/kg/injection, schedule: Q01DX001 (ip), vehicle: saline 107 % of control | dose: 200.0 mg/kg/injection, schedule: Q01DX001 (ip), vehicle: saline 99 % of control

NC(CO)C(O)c1ccc(N=Nc2ccc(O)cc2)cc1 (centres undefined)
inactive: [4] 95 % of control | [5] 100 % of control | [6] 95 % of control

C=C(C)C(=O)OCCN(C)C (tested in a mixture with another compound)
inactive: [5] 100 % of control | [6] 100 % of control | [7] 100 % of control

COc1ccc(-c2cc(=O)c3ccc4cc(OC)c(OC)cc4c3o2)cc1
inactive: dose: 12.5 mg/kg/injection, schedule: Q01DX009 (ip), vehicle: other 91 % of control | dose: 100.0 mg/kg/injection, schedule: Q01DX009 (ip), vehicle: other 88 % of control | dose: 200.0 mg/kg/injection, schedule: Q01DX009 (ip), vehicle: other 91 % of control

COc1ccc([I+]c2ccc(OC)cc2)cc1
inactive: dose: 3.0 mg/kg/injection, schedule: Q01DX009 (ip), vehicle: saline with Tween-80 104 % of control | dose: 6.0 mg/kg/injection, schedule: Q01DX009 (ip), vehicle: saline with Tween-80 120 % of control

CCOC(=O)C1=NN2C(O)C3(C)CC(C(=O)OCC)=NN3C(O)C2(C)C1 (centres undefined)
inactive: dose: 50.0 mg/kg/injection, schedule: Q01DX009 (ip), vehicle: saline 105 % of control | dose: 100.0 mg/kg/injection, schedule: Q01DX009 (ip), vehicle: saline 107 % of control | dose: 200.0 mg/kg/injection, schedule: Q01DX009 (ip), vehicle: saline 99 % of control

CCCC1CC[N-]CC1.CCCC1CC[N-]CC1.[Br][Pt+2]([Br])([Br])[Br]
inactive: dose: 1.56 mg/kg/injection, schedule: Q01DX009 (ip), vehicle: saline with Tween-80 94 % of control | [1] 87 % of control | [2] 95 % of control | [3] 98 % of control | [4] 123 % of control

Oc1ccccc1C=NCc1ccccc1
inactive: [4] 107 % of control | [5] 119 % of control | [6] 114 % of control | [7] 114 % of control

From PubChem BioAssay AID330 (DTP/NCI, 2004)
